Measurements as given in US7312248B2, “Control of parasites in animals by the use of novel trifluoromethanesulfonanilide oxime ether derivatives” (Schering-Plough Animal Health Corporation, priority 2004, dated 2007).
Read-outs that look alike come from different tables or passages of the source.

What was measured:
Format in all cases: in vivo
[1] = test system: cat flea (Ctenocephalides felis); experiment: whole plant or invertebrate; details: Ctenocephalides felis; for mortality at 1.26 µg/cm2, 1.26 µg/cm2: Laboratory 1 A data
Procedure, shortened: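 Adult C. felis (3-7 days post-emergence; 15 per flask, at least 4 replicates) exposed to a glass flask base dried 24 h after coating with compound in acetone at 1.26 μg/cm^2. Held at 25±1 °C, 75±5% humidity; mortality (immobile or unable to right) scored at 8, 24 and/or 48 h as percentage.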

[2] = test system: cat flea (Ctenocephalides felis); experiment: Ctenocephalides felis adulticide assay: dose response (LC50)
Text: c) Ctenocephalides felis Adulticide Assay: C. felis Dose Response
The purpose of this example was to determine the LC50 when cat fleas were contacted with a glass surface treated with sample compounds or formulations prepared as described above. Mortality of fleas was defined as follows: fleas were considered dead if they didn't move or were on their sides and unable to walk or right themselves. LC50: Lethal Concentration 50—concentration of glass surface treatment at which 50% of the cat fleas were killed. The test species was the cat flea (Ctenocephalides felis). The strain used was obtained from external suppliers as pupae and held in the laboratory under testing conditions until the adults had emerged. Fifteen (15) fleas were used in a minimum of four replicates for each dose level (total of 60 fleas per dose level). The insects were selected to be in the adult life stage, aged between 3 and 7 days post emergence.
The compounds to be tested were dissolved in acetone just prior to testing. Samples of compounds were stored in a refrigerator (5±1° C.) unless otherwise specified. During the mortality testing, the temperature was maintained at 25+1° C. Humidity was maintained at 75±5%. The base (area=159 mm^2) of a 100 mL glass Erlenmeyer (conical) flask provided the treatment surface. Flasks were pretreated with Coatasil™ glass treatment to maximise bio-availability of test compounds by preventing them from binding to the glass surface.
Six dose levels (concentrations) of test sample, in the form of a serial dilution, were derived from a pilot study and covered a range that produced very low to very high mortality. The base of the 100 mL Erlenmeyer flask was treated with 0.5 mL of test sample in acetone and gently swirled. This volume was sufficient to cover the base of the flask. Flasks were left to dry for 24 hours before flea exposure. Adult cat fleas were lightly anaesthetised by cooling and then placed into a sorting chamber, which allowed fleas to revive and jump into the Erlenmeyer flasks. Fifteen (15)adult cat fleas were collected in each flask. The top of the flasks were then covered in Parafilm™ and small holes made to allow gas exchange. A 0.5 mL volume of acetone was applied to the base of an Erlenmeyer flask and the testing proceeded in the same manner described above. Cat fleas in the treatment containers were held under testing conditions for 24 hours. Mortality resulting from the treatments was recorded at 8 and 24 hours.

[3] = test system: Brown Dog Tick (Rhipicephalus sanguineus); experiment: Rapid screening protocol for topical application on brown dog ticks; details: 24 h; topical, 10 μg of active per tick in 1 μL acetone; adult ticks; Laboratory 1 E data
Protocol: d) Rapid Screening Protocol for Topical Application on Brown Dog Ticks (Rhipicephalus sanguineus)
The aim of the test was to determine the presence of significant acaricidal activity in sample compounds or formulations when applied topically on brown dog ticks. A tick was defined as dead if it gave no apparent response when touched lightly and observed for 1 minute. […] Both permethrin and fipronil were employed as reference compounds. The insect species tested was the Brown Dog Tick (Rhipicephalus sanguineus). Mixed sex adult ticks were used for tests. The strain used was cultured by von Berky Veterinary Services, Woody Point, QLD, AU and supplied as unfed adult ticks (mixed sex). Ticks were maintained in controlled conditions (temp. 18°+2° C., humidity 75±5% RH).
Temperature was maintained at 25±1° C. and the humidity was ambient. […] Ticks were each treated on the abdomen with 1 μL of a single dose level of test sample in acetone; ten ticks were treated with solvent only (acetone) in each test. Tests were replicated 4 times (total of 40 ticks treated). […]

Haemonchus contortus = Haemonchus contortus larvacidal (larval development) assay; details: 144 h, read-out: Haemonchus contortus LD99
Protocol: a) Haemonchus Contortus Larvacidal Assay:
The effect of compounds on larval development was determined in the assay described by Gill et al. (1995, International Journal of Parasitology 25:463-470). Briefly, in this assay, nematode eggs were applied to the surface of an agar matrix containing the test compound and then allowed to develop through to the L3, infective stage (6 days). The wells for each dilution of every compound (from highest to lowest concentration) were inspected to determine the well number corresponding to the lowest concentration at which development was inhibited in 99% of the nematode larvae present (LD99). Because well numbers correspond to a two-fold serial dilution of each compound, a titre (dilution factor) is generated as 2^n−1, where n is the well number. By dividing the highest concentration tested by the titre an LD99 value can be obtained, representing the concentration required to inhibit development in 99% of the nematode larvae present. The compounds supplied as solid and viscous liquids were dissolved in DMSO. Twelve serial one-half dilutions in DMSO solution were prepared from the stock solution, each of which was then diluted ⅕ with water. Aliquots (10 μl) of each dilution were transferred to the bioassay plates to give a final concentration range of 0.024 to 50 μg/ml.

[4] = 24 h, read-out: C. felis Mortality (%) 24 h, 24 h
[5] = 8 h, read-out: C. felis Mortality (%) 8 h, 8 h

Row | SMILES | mortality at 1.26 µg/cm2, 1.26 µg/cm2 [1, 4] | C. felis LC50 ([2]; Laboratory 1 C data) | IC99 (Haemonchus contortus) | mortality at 1.26 µg/cm2, 1.26 µg/cm2 [1, 5] | further results
1 | C/C(=N\OC1CCCC1)c1cc(Cl)ccc1NS(=O)(=O)C(F)(F)F [Compound 163, N-[4-chloro-2-(1-cyclopentyloxyiminoethyl)phenyl]trifluoromethanesulfonamide] | 100% | 0.1 μg/cm^2 |  |  | 
2 | CC/C(=N\OCc1ccc(Cl)cc1)c1cc(Cl)ccc1N(COC(=O)C(C)(C)C)S(=O)(=O)C(F)(F)F [Compound 303] |  |  |  |  | mortality at 1.26 µg/cm2 ([1]; 24 h, read-out: Ctenocephalides felis Mortality (%) 24 h): 0%; mortality at 1.26 µg/cm2 ([1]; 48 h, read-out: Ctenocephalides felis Mortality (%) 48 h): 76%; Rhipicephalus sanguineus Mortality (%) 24 h [3]: 2%
3 | C/C(=N\Oc1ccc(Cl)cc1)c1cc(Cl)ccc1NS(=O)(=O)C(F)(F)F [Compound 127] | 90% | 0.3 μg/cm^2 | 0.4 µg/mL |  | 
4 | CC/C(=N\OCc1ccc(Cl)c(Cl)c1)c1cc(Cl)ccc1NS(=O)(=O)C(F)(F)F [Compound 79] | 100% | 0.6 μg/cm^2 | 0.6 µg/mL | 73% | 
5 | C/C(=N\OC(C)c1ccc(Cl)cc1)c1cc(Cl)ccc1NS(=O)(=O)C(F)(F)F (stereo not shown) [Compound 123] |  | 1.2 μg/cm^2 | 0.9 µg/mL | 11% | C. felis LC50 ([2]; Laboratory 2 D data): 0.3 μg/cm^2
6 | C=CCO/N=C(\C)c1cc(Cl)ccc1NS(=O)(=O)C(F)(F)F [Compound 181] | 100% | 0.1 μg/cm^2 |  |  | 
7 | CC/C(=N\OC1C=CCCC1)c1cc(Cl)ccc1NS(=O)(=O)C(F)(F)F (stereo not shown) [Compound 170] | 97% | 0.2 μg/cm^2 |  |  | 
8 | CC/C(=N\Oc1ccc(Cl)c(Cl)c1)c1cc(Cl)ccc1NS(=O)(=O)C(F)(F)F [Compound 139] | 64% |  | 0.9 µg/mL |  | C. felis LC50 ([2]; Laboratory 2 D data): 0.3^D μg/cm^2
9 | CCC/C(=N\OCc1ccc(Cl)cc1Cl)c1cc(Cl)ccc1NS(=O)(=O)C(F)(F)F [Compound 100, N-{4-chloro-2-[1-(2,4-dichlorobenzyloxyimino)butyl]}trifluoromethanesulfonamide] | 88% | 0.4 μg/cm^2 | 1.8 µg/mL | 58% | 
10 | C/C(=N\OC(C)C)c1cc(Cl)ccc1NS(=O)(=O)C(F)(F)F [Compound 158] | 100% | 0.2 μg/cm^2 |  |  | 
11 | CC/C(=N\OC(CC)CC)c1cc(Cl)ccc1NS(=O)(=O)C(F)(F)F [Compound 171] | 100% | 0.4 μg/cm^2 |  |  | 
12 | C/C(=N\Oc1cccc(C(F)(F)F)c1)c1cc(Cl)ccc1NS(=O)(=O)C(F)(F)F [Compound 134, N-{4-chloro-2-[1-(3-trifluoromethylphenoxyimino)ethyl]phenyl}trifluoromethanesulfonamide] | 96% | 0.4 μg/cm^2 | 0.4 µg/mL |  | 
13 | CC/C(=N\Oc1cccc(Cl)c1)c1cc(Cl)ccc1NS(=O)(=O)C(F)(F)F [Compound 131] | 100% | 0.7 μg/cm^2 | 1.6 µg/mL |  | 
14 | O=S(=O)(Nc1ccc(Cl)cc1/C(=N/OCc1ccc(C(F)(F)F)cc1)c1ccccc1)C(F)(F)F [Compound 24] | 43% |  | 2.5 µg/mL |  | C. felis LC50 ([2]; Laboratory 2 D data): 0.8^D μg/cm^2
15 | C/C(=N\OCC(C)C)c1cc(Cl)ccc1NS(=O)(=O)C(F)(F)F [Compound 172] | 100% | 0.06 μg/cm^2 |  |  | 
16 | CC/C(=N\OCc1ccc(Cl)cc1Cl)c1cc(Cl)ccc1NS(=O)(=O)C(F)(F)F [Compound 74] |  | 0.2 μg/cm^2 | 0.4 µg/mL | 94% | 
17 | CC/C(=N\OCC(C)C)c1cc(Cl)ccc1NS(=O)(=O)C(F)(F)F [Compound 159] | 100% | 0.2 μg/cm^2 |  |  | 
18 | CC/C(=N\OCCOc1ccccc1)c1cc(Cl)ccc1NS(=O)(=O)C(F)(F)F [Compound 106] | 48% | 1.0 μg/cm^2 | 11 µg/mL |  | 
19 | O=S(=O)(Nc1ccc(Cl)cc1/C=N/OCc1ccc(Cl)c(Cl)c1)C(F)(F)F [Compound 97, N-{4-chloro-2-[(3,4-dichlorobenzyloxyimino)methyl]phenyl}trifluoromethanesulfonamide] | 42% |  | 0.6 µg/mL |  | 
20 | C/C(=N\OCc1ccc(C(F)(F)F)cc1C(F)(F)F)c1cc(Cl)ccc1NS(=O)(=O)C(F)(F)F [Compound 2, N-{2-[1-(2,4-bistrifluoromethylbenzyloxyimino)ethyl]-4-chlorophenyl}trifluoromethanesulfonamide] |  |  | 0.1 µg/mL | 2% | 
21 | CC(C)/C(=N\OCc1ccc(C(F)(F)F)cc1)c1cc(Cl)ccc1NS(=O)(=O)C(F)(F)F [Compound 108] |  |  | 1.3 µg/mL | 12% | 
22 | CC/C(=N\OCc1ccccc1Cl)c1cc(Cl)ccc1NS(=O)(=O)C(F)(F)F [Compound 10] | 73% | 0.3 μg/cm^2 | 2.7 µg/mL | 56% | 
23 | C/C(=N\Oc1ccc(Cl)c(Cl)c1)c1cc(Cl)ccc1NS(=O)(=O)C(F)(F)F [Compound 140] | 71% |  | 0.7 µg/mL |  | 
24 | CC(C)/C(=N\OCc1ccc(C(F)(F)F)cc1C(F)(F)F)c1cc(Cl)ccc1NS(=O)(=O)C(F)(F)F [Compound 116, N-{2-[1-(2,4-bistrifluoromethylbenzyloxyimino)-2-methylpropyl]-4-chlorophenyl}trifluoromethanesulfonamide] |  |  | 0.9 µg/mL | 10% | 
25 | CC/C(=N\OCc1cccc(Cl)c1Cl)c1cc(Cl)ccc1NS(=O)(=O)C(F)(F)F [Compound 72] | 63% | 0.5 μg/cm^2 | 0.3 µg/mL | 13% | 
26 | C/C(=N\OCc1ccc(C(F)(F)F)cc1C(F)(F)F)c1cc(F)ccc1NS(=O)(=O)C(F)(F)F [Compound 121] |  |  | 0.6 µg/mL | 3% | 
27 | C/C(=N\OC1CCCCC1)c1cc(Cl)ccc1NS(=O)(=O)C(F)(F)F [Compound 161] | 100% | 0.2 μg/cm^2 |  |  | 
28 | O=S(=O)(Nc1ccc(Cl)cc1/C(=N/OCc1ccc(Cl)cc1Cl)c1ccccc1)C(F)(F)F [Compound 61] |  |  | 1.7 µg/mL | 17% | 
29 | C/C(=N\Oc1ccc(C#N)cc1)c1cc(Cl)ccc1NS(=O)(=O)C(F)(F)F [Compound 135] | 47% |  | 3 µg/mL |  | 
